The record followed here is patent US7968605B2, “Methods for treating inflammatory disease by administering aldehydes and derivatives thereof” (ALFAMA—Investigação e Desenvolvimento de Produtos …, priority 2002, dated 2011).

Series [1] concerns adjuvant arthritis. The series is described as follows: Anti-arthritic activity, adjuvant arthritis in Lewis rats. As to conditions: for Arthritic score / Increase in paw volume compared to vehicle or untreated rats: 100 and 25 mg/kg daily. Type of series: in vivo.
A short description of series [2]: CO release from aldehydes in different media (TBHP, H2O2, rpmi, pH 2), gas chromatograph. Particulars: for Effect of radical trap 2,6-di-tert-butylphenol on CO release in acidic aqueous solution: acidic aqueous solution plus radical trap; for CO release in pH 2 (acidic aqueous) solution: aqueous solution pH 2-2.5, 37° C.; for CO release in H2O2 solution: hydrogen peroxide solution, 35% in water; for CO release in H2O2 solution / Media in which CO release was observed / CO release in rpmi / CO release in TBHP solution: 37° C.; for Media in which CO release was observed: tested in TBHP, H2O2, rpmi and pH 2 solutions; for CO release in rpmi: RPMI media with 10% fetal calf serum; for CO release in TBHP solution: TBHP solution in excess, aldehyde about 0.11-0.17 M.
Procedure: In each experiment 2 ml of the appropriate solution, TBHP, H2O2, rpmi or pH 2 solution, was added and the vial placed at 37° C. with orbital stirring.
(§1) At the appropriate time, 250 μl of the gas mixture was removed from the vial, injected in the gas chromatograph (Trace GC with a TCD detector from Thermo Finnigan, connected to a Chrom-card 32 bit software), and the amount of CO was measured according to previously calibrated conditions.

Series [3] is described as follows: CO release from aldehyde prodrug compounds in TBHP plus rpmi solution. As to conditions: for CO release / Rate of CO release: 1.5 ml rpmi + 0.5 ml TBHP, 37° C.
Procedure: as §1
1.5 ml of rpmi and 0.5 ml of TBHP were added, and the vial was placed at 37° C. with orbital stirring. At the appropriate time, 250 μl of the gas mixture was analysed as described for Example 1.
The test system of series [4] is adjuvant arthritis. The series is described as follows: Anti-arthritic activity, adjuvant arthritis in Sprague-Dawley rats. Type of series: in vivo. As to conditions: 100 mg/kg/day intraperitoneal for 20 days from day 10. Here is the method:
Adjuvant arthritis was induced in outbred Sprague-Dawley rats by intradermal injection into the subplantar area of the right hind paw of 0.1 ml of a 10 mg/ml suspension of Mycobacterium butyricum, killed and dried in Freund's incomplete adjuvant. Treatment was initiated 10 days after disease induction at the time of disease onset. Groups of 7 rats received intraperitoneal injections of compound 1 and compound 2 in 1 ml PBS, each at a dose of 100 mg/kg/day for 20 days. A control group of 7 rats received no treatment. Progression of arthritis was monitored by daily measurements of right and left paw volumes by a water displacement method using a plethysmometer, by daily measurements of the ankle circumference with a flexible strip, and by determination of the arthritic index based on levels of erythema and oedema of the entire paws and digits, number of joints involved, spondylosis, lesions on the tail, movement capacity and infections. The maximum possible score was 11.

Setting [5] is: 25 mg/kg daily injections for 30 days from day 10.
Where [6] appears, read: 100 mg/kg daily injections for 30 days from day 10.
Setting [7] is: listed as 4-ethyl-4-formyl-hexanenitrile.

For the molecule `CC(C)(C=O)c1ccccc1` [compound 7, 2-methyl-2-phenylpropionaldehyde], the “Increase in body weight by day 40” value in series [1] (setting [5]) amounted to 28.6%. Also, in series [1] (100 mg/kg), the “Days with significant inhibition of arthritic score relative to vehicle treated rats” value is 14 days and the “Reduction in paw volume compared with dexamethasone” value is “comparable to that seen in rats treated with dexamethasone”. Moreover, the “Increase in body weight by day 40” value in series [1] (setting [6]) is recorded as 31.6%. In series [1], the Arthritic score entry is recorded as “only slightly influenced” and the “Increase in paw volume compared to vehicle or untreated rats” value was “reduced the increase in paw volume”. Moreover, in series [2], the “Effect of radical trap 2,6-di-tert-butylphenol on CO release in acidic aqueous solution” value (“Effect … in acidic aqueous solution” for short) is on record as “inhibited the decarbonylation process”, the “CO release in pH 2 (acidic aqueous) solution” value is reported as “decarbonylated significantly”, the “CO release in H2O2 solution” value is “responded significantly to decarbonylation” and the “Media in which CO release was observed” value was “released CO in all media tested except rpmi solution”.

As for `CC(C)(C)C1NC(C(=O)O)CCS1` (racemic) [compound 12, 2-tert-butyl-[1,3]thiazinane-4-carboxylic acid], the CO release entry in series [3] is listed as “lower than its 5-membered ring analogue”. Also, in series [3] (TBHP plus rpmi), the “CO release after 6 hours” value amounted to 7.7%, the “CO release after 25 hours” value is reported as 15.8% and the “CO release after one day” value was “about 16%”.

For `CC(C)(C)C=NNC(=O)c1ccccc1`, the CO release entry in series [3] was “No hydrolysis → No CO”.

`COC(=O)C1CSC(C(C)(C)C)N1` (racemic) [compound 10]: in series [3], the CO release result is “released CO” and the “Rate of CO release” value is listed as “very slow”. For the same molecule, in series [3] (TBHP plus rpmi), the “CO release after 6 hours” value worked out at 0.3%, the “CO release after 25 hours” value turned out to be 10.3% and the “CO release after one day” value is “about 10%”.

As to `CC(C)(C)C=O` [compound 1, trimethylacetaldehyde], the “Increase in body weight by day 40” value in series [1] (setting [5]) turned out to be 38.7%. For the same molecule, in series [1] (setting [6]), the “Increase in body weight by day 40” value turned out to be 40%. In addition, in series [1], the Arthritic score entry is “only slightly influenced” and the “Increase in paw volume compared to vehicle or untreated rats” value was “reduced the increase in paw volume”. Further, in series [4], the “Body weight after disease onset” value was “No loss of body weight was observed”; the “Paw circumference (right and left)” value is listed as “prevented the increase”; the “Paw volume (right and left)” value is listed as “prevented the increase”. In series [2] (0.23 M aldehyde, varying TBHP, up to 32 eq.), the “Dependence of CO release on TBHP concentration” value is “increased with the concentration of TBHP until approximately eight equivalents of TBHP was reached”. Moreover, the “CO release at higher and lower aldehyde concentrations relative to maximum” value in series [2] (0.25 M and 0.08 M aldehyde in TBHP) is recorded as “decreased approximately to half”. Besides, the “Aldehyde concentration giving maximum CO release” value in series [2] (1.9 M TBHP) was “around 0.12 M”. For the same molecule, in series [2], the “CO release in rpmi” value is given as “No CO was detected”, the “CO release in TBHP solution” value is recorded as “released CO”, the “Effect … in acidic aqueous solution” value is given as “inhibited” and the “CO release in pH 2 (acidic aqueous) solution” value was “very little”. Moreover, the “CO release in H2O2 solution” value in series [2] is reported as “No CO was detected”. Also, the “CO release at TBHP concentration of inflamed tissues” value in series [2] (TBHP 1 mM) is recorded as “CO release still was observed”. The “Effect of radical trap 2,6-di-tert-butylphenol on CO release in TBHP solution” value in series [2] (TBHP solution plus radical trap) is “inhibited”.

As for `CC1C(c2ccccc2)OC(C(C)(C)C)N1C` (stereo not shown), in series [3], the CO release entry is on record as “No hydrolysis → No CO”.

For the molecule `CC(C)(C=O)CO` [compound 4, 3-hydroxy-2,2-dimethylpropanal], the “Time course of CO release in TBHP solution” value in series [2] (TBHP solution, 0.12 M) is “initially the CO release was small, but within one day, it reached high levels”. Further, the “Media in which CO release was observed” value in series [2] is recorded as “released CO only in TBHP solution”.

Regarding `C[C@@H]1C[C@H]2[C@@H]3CCC4=CC(=O)C=C[C@]4(C)[C@@]3(F)[C@@H](O)C[C@]2(C)[C@@]1(O)C(=O)CO` [dexamethasone, reference compound], the “Increase in body weight by day 40” value in series [1] (dexamethasone 0.3 mg/kg daily for 30 days from day 10) came out at 25.7%.

As for `C=CCC(C)(C)C=O` [compound 2, 2,2-dimethyl-4-pentenal], in series [4], the “Body weight after disease onset” value was “No loss of body weight was observed”; the “Paw circumference (right and left)” value is “prevented the increase”; the “Paw volume (right and left)” value was “prevented the increase”. Further, in series [2], the “CO release in rpmi” value is “decarbonylation in rpmi observed”, the “CO release in TBHP solution” value is listed as “released CO”, the “CO release in pH 2 (acidic aqueous) solution” value is “very little” and the “CO release in H2O2 solution” value is reported as “No CO release was observed”. In series [2] (listed as 2,2-dimethyl-4-pentenal), the “CO release in rpmi” value is given as “even less”.

`CC(C)(C)/C=N/NC(=O)Nc1ccccc1`: the CO release entry in series [3] was “No hydrolysis → No CO”.

Turning to `CC(C)(C)C1NC(C(=O)O)CS1` (racemic) [compound 9, 2-tert-butylthiazolidine-4-carboxylic acid], in series [3], the CO release entry was “released CO” and the “Rate of CO release” value is reported as “fast within the first 6 hours”. Further, the “CO release after 5 hours” value in series [3] (TBHP plus rpmi, 5 hours) stood at 17%. Moreover, in series [3] (TBHP plus rpmi), the “CO release after 6 hours” value is listed as “around 16%” and the “CO release after one day” value is reported as 20%. The “CO release after 23 hours” value in series [3] (TBHP plus rpmi, 23 hours) is listed as 21%.

Consider `Cc1ccc(CC(C)(C)C=O)cc1` [compound 6, 2,2-dimethyl-3-(p-methylphenyl)propanal], for which, in series [2], the “CO release in rpmi” value is on record as “decarbonylation in rpmi observed”, the “Effect … in acidic aqueous solution” value is listed as “inhibited the decarbonylation process”, the “CO release in pH 2 (acidic aqueous) solution” value is “decarbonylated significantly” and the “Media in which CO release was observed” value is recorded as “released CO in all media tested except H2O2 solution”.

Regarding `CC(C)(C)C=Nc1ccc(C(=O)O)c(O)c1`, the CO release entry in series [3] is “Stable, but instaneous hydro- lysis was observed when dissolved in water”.

On to `CC(C)(C)C1Nc2ccccc2CO1` (stereo not shown), for which the CO release entry in series [3] is listed as “No hydrolysis → No CO”.

In the case of `CCC(C=O)(CC)CCC#N` [compound 3, 4-ethyl-4-formyl-hexanenitrile], in series [2], the “CO release in rpmi” value is “decarbonylation in rpmi observed”, the “CO release in TBHP solution” value is “released a very high amount of CO”, the “Effect … in acidic aqueous solution” value is reported as “inhibited the decarbonylation process” and the “CO release in pH 2 (acidic aqueous) solution” value was “decarbonylated significantly”. The “CO release in H2O2 solution” value in series [2] is “No CO release was observed”. Further, in series [2] (setting [7]), the “CO release in rpmi” value was “even less” and the “CO release in pH 2 (acidic aqueous) solution” value is “less”.

As for `COC(=O)C1COC(C(C)(C)C)N1` (stereo not shown), in series [3] (TBHP plus rpmi), the “CO release after 6 hours” value worked out at 0% and the “CO release after 24 hours” value was 4.2%.

For `CC(C)(C)C1NCCS1` (racemic) [compound 11, 2-tert-butyl-thiazolidine], in series [3], the CO release result is on record as “released CO” and the “Rate of CO release” value is “initially very slowly”. In series [3] (TBHP plus rpmi), the “CO release after 6 hours” value is reported as 3%, the “CO release after 24 hours” value turned out to be 25% and the “CO release after one day” value was “about 25%”.
